These results are taken from patent US20260085073A1, “PYRAZOLYLCARBOXAMIDE COMPOUNDS AND THEIR USE IN THERAPY” (Hotspot Therapeutics, Inc., priority 2022, published 2026).

The target of this test is T1, MALT1 (Homo sapiens, UniProt Q9UDY8).
T1 construct: Avi-tagged FL MALT-1 (Pharmaron, stored at −70° C.); Avi-tag
T1 sequence (Q9UDY8 1-824): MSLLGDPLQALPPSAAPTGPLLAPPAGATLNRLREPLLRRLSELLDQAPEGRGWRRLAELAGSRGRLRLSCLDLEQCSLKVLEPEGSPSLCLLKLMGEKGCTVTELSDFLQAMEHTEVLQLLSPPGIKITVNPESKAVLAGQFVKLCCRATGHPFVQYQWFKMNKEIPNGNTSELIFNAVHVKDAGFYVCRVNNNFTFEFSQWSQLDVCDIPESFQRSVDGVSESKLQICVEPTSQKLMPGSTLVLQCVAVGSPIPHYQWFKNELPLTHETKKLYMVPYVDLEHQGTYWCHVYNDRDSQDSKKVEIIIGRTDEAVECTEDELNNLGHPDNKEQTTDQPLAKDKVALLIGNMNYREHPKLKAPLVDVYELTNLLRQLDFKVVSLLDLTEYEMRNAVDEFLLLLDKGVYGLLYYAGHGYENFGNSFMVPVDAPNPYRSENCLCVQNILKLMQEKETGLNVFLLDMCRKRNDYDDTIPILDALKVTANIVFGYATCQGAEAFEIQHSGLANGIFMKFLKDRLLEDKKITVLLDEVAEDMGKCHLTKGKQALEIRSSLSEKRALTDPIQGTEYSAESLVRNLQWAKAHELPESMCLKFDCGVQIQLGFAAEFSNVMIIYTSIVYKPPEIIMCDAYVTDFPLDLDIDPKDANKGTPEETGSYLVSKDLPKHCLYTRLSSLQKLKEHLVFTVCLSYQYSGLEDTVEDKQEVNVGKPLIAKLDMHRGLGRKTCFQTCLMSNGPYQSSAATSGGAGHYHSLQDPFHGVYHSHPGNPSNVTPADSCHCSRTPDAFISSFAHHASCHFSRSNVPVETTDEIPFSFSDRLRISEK
The experiment in a line: MALT1 inhibition assay (MALT-1 Fluorogenic Peptide Cleavage Assay, Ac-LRSR-AMC substrate). In kind it is biochemical. Particulars: Avi-tagged FL MALT-1, 30 min pre-incubation, 90 min reaction at room temperature, fluorescence intensity. On the procedure:
Example 71—MALT1 Inhibition Assay
Compounds were tested for ability to bind to MALT1.
Inhibition of MALT1 activity by the presence of small molecules was evaluated using MALT-1 Fluorogenic Peptide Cleavage Assay. The assay utilizes a quenched AMC-labelled peptide that contains the MALT-1 recognition sequence and cleavage site (LRSR). MALT-1 mediated cleavage of the peptide relieves the quenching and leads to an increase in fluorescence at excitation (342 nm) and emission (441 nm).
The following reagents were obtained commercially and used to prepare standard reagent formulations as further described below: N-2-hydroxyethylpiperazine-N-2-ethane sulfonic acid (HEPES) (1 M, pH 7.5, stored at 4° C.), sodium citrate (stored at RT), tris(2-carboxyethyl) phosphine hydrochloride (T-CEP) (500 mM, stored at −20° C.), ethylenediaminetetraacetic acid (EDTA) (500 mM, stored at RT), dimethylsulfoxide (DMSO, stored at RT), 3-[(3-cholamidopropyl)dimethylammonio]-1-propane sulphate (CHAPS) (stored at RT), dimethylsulfoxide (DMSO), DMSO (Fisher Scientific, stored at RT), Avi-tagged FL MALT-1 (Pharmaron, stored at −70° C.), Ac-LRSR-AMC Peptide (SM Biochemicals, stored at −20° C.), and ultrapure water (MILLI-QR).
The standard reagent formulations used in this assay were prepared and stored as follows. A 1.1 M solution of sodium citrate (161.3 g, 500 mL) was prepared and stored at room temperature. A 10% (w/v) CHAPS solution (2.0 g, 20 mL) was prepared and stored at 4° C. A 500 mM HEPES solution having pH of 6.89 was prepared from 200 mL of a 1 M HEPES solution having a pH of 7.5 using concentrated hydrochloric acid and brought to a final volume of 400 mL with MILLI-QR H2O. The substrate, 10 mM Ac-LRSR-AMC Peptide, was prepared (10 mg, 1.370 mL DMSO) and stored at −20° C.
Compounds were plated to provide a 2% DMSO final concentration using a ProxiPlate-384 Plus F Black 384-shallow well microplate. The assay-ready plates were equilibrated to room temperature. A reaction buffer (30 mL total volume) was prepared by combining HEPES (pH 6.89, 25 mM, 1.5 mL), sodium citrate (660 mM, 18.0 mL), T-CEP (1 mM, 0.06 mL), EDTA ([…], 0.06 mL), CHAPS (0.05%, 0.15 mL), DMSO (2%, 0.6 mL), and MILLI-QR H2O (10.23 mL; 9.63 mL when backfilled to 2% DMSO) followed by thorough mixing. DMSO was added only when compound plates had not been DMSO-backfilled to 2%.
MALT-1 was thawed and kept on ice. Peptide substrate was thawed on the bench under ambient conditions. A MALT-1 enzyme working stock was prepared from Avi-tagged FL MALT-1 (40 nM in a prepared reagent volume of 16.5 μL) and the reaction buffer (13.0 mL). MALT1 working stock (5 μL) was added to each well of the microplate. MALT-1 was pre-incubated with compounds for 30 minutes at room temperature.
Two substrate working stocks (Km and 10×Km) were prepared. The 1×Km substrate was prepared from Ac-LRSR-AMC Peptide (50 μM in a prepared reagent volume of 35.0 μL) and the reaction buffer (6.965 mL). The 10×Km substrate was prepared from Ac-LRSR-AMC Peptide (280 μM in a prepared reagent volume of 196.0 μL) and the reaction buffer (6.804 mL). The reaction was initiated by the addition of substrate working stock (5 μL, 50 μM) to Km plates and the addition of substrate working stock (5 μL 280 μM) to 10×Km plates. The plates were covered and incubated on the bench at room temperature for 90 minutes.
Fluorescence intensity was determined using a CLARIOstar microplate reader (BMG LABTECH) using the optimised AMC mode. Before taking readings, a 70% gain was applied on the neutral control well. Compound data were normalised to % Inhibition and used to plot sigmoidal concentration response curves to yield various parameters including IC50.

Usually IC50 stands for the point on the concentration scale where inhibition reaches its midpoint. Low readings indicate greater potency, high ones weaker potency. `Cc1cc(NC(=O)c2c(C(F)(F)F)c(-c3ccccc3)nn2C)cnc1-n1ccnn1` [Compound I-136] yielded an IC50 of 2500 to 10000 nM.

Take `CC(=O)Nc1cc(-c2nn(C)c(C(=O)Nc3ccnc(C(F)(F)F)c3)c2C(F)(F)F)ccn1` [Compound I-100]: the IC50 was over 10000 nM.

In turn, `Cn1nc(-c2cccc3cnccc23)c(C(F)(F)F)c1C(=O)Nc1cnc(-n2nccn2)c(C#N)c1` [Compound I-31] gave an IC50 of under 500 nM.

`Cn1nc(-c2ccccc2)c(C(F)(F)F)c1C(=O)Nc1ccnc(C(F)(F)F)c1` [Compound I-147, 1-methyl-3-phenyl-4-(trifluoromethyl)-N-(2-(trifluoromethyl)pyridin-4-yl)-1H-pyrazole-5-carboxamide]: the IC50 was under 500 nM.

Take `Cn1nc(-c2cccc3c2OCO3)c(C(F)(F)F)c1C(=O)Nc1ccnc(C(F)(F)F)c1` [Compound I-33]: the IC50 was under 500 nM.

The compound `Cn1nc(-c2cccc3c2NC(=O)C3)c(C(F)(F)F)c1C(=O)Nc1ccnc(C(F)(F)F)c1` [Compound I-23] had an IC50 of 500 to 2500 nM.

Regarding `Cc1nc2cccc(-c3nn(C)c(C(=O)Nc4cnc(-n5nccn5)c(Cl)c4)c3C(F)(F)F)c2s1` [Compound I-297], the IC50 was under 500 nM.

With `COc1ncc(NC(=O)c2c(C(F)(F)F)c(-c3cccc4ncccc34)nn2C)cc1C#N` [Compound I-141], the IC50 was 2500 to 10000 nM.

Compound `Cn1nc(-c2cccc3ccoc23)c(C(F)(F)F)c1C(=O)Nc1cnc(-n2nccn2)c(C(F)(F)F)c1` [Compound I-127] showed a half-inhibitory concentration (IC50) of under 500 nM.

`Cn1nc(-c2ccccc2OC2COC2)c(C(F)(F)F)c1C(=O)Nc1cnc(-n2nccn2)c(C#N)c1` [Compound I-34] had an IC50 of 500 to 2500 nM.

Regarding `Cn1nc(-c2cccc3occc23)c(C(F)(F)F)c1C(=O)Nc1cnc(-n2nccn2)c(C(F)(F)F)c1` [Compound I-146], the IC50 is under 500 nM.

For `CN(C)CCn1nc(-c2cccc3ccoc23)c(C(F)(F)F)c1C(=O)Nc1cnc(-n2nccn2)c(C#N)c1` [Compound I-186, 3-(benzofuran-7-yl)-N-(5-cyano-6-(2H-1,2,3-triazol-2-yl)pyridin-3-yl)-1-(2-(dimethylamino)ethyl)-4-(trifluoromethyl)-1H-pyrazole-5-carboxamide], the IC50 is under 500 nM.

`Cn1nc(-c2cccc3ccoc23)c(C(F)(F)F)c1C(=O)Nc1cnc(-n2nccn2)c(C(F)F)c1` [Compound I-128] registered a concentration for half-maximal inhibition (IC50) of under 500 nM.

Consider `Cn1nc(-c2cccc3c2CCO3)c(C(F)(F)F)c1C(=O)Nc1ccnc(C(F)(F)F)c1` [Compound I-91], for which the IC50 fell in the range of 500 to 2500 nM.

On to `Cn1nc(C(=O)Nc2cnc(-n3nccn3)c(Cl)c2)c(C(F)(F)F)c1-c1cccc2c1OCO2` [Compound I-142], for which the 50% inhibitory concentration (IC50) was under 500 nM.

On to `Cn1nc(-c2cccc3nncn23)c(C(F)(F)F)c1C(=O)Nc1ccnc(C(F)(F)F)c1` [Compound I-118], for which the IC50 lay within 2500 to 10000 nM.

For the compound `Cn1nc(-c2cccc3ncccc23)c(C(F)(F)F)c1C(=O)Nc1ccc(C(=O)N2CC(O)C2)c(Cl)c1` [Compound I-240], the IC50 lay within 2500 to 10000 nM.

`Cn1nc(-c2cncc(C#N)c2)c(C(F)(F)F)c1C(=O)Nc1ccnc(C(F)(F)F)c1` [Compound I-70] came in with a concentration for half-maximal inhibition (IC50) of over 10000 nM.

For `COc1c(-c2nn(C)c(C(=O)Nc3ccnc(C(F)(F)F)c3)c2C(F)(F)F)ccnc1N` [Compound I-199], the IC50 fell in the range of 2500 to 10000 nM.

Take `Cn1nc(-c2cncc(F)c2)c(C(F)(F)F)c1C(=O)Nc1ccnc(C(F)(F)F)c1` [Compound I-81]: the IC50 was 2500 to 10000 nM.

`Cn1nc(-c2ccc(C#N)c3ncccc23)c(C(F)(F)F)c1C(=O)Nc1ccnc(C(F)(F)F)c1` [Compound I-22] had an IC50 of 500 to 2500 nM.

Turning to `Cn1nc(-c2ccc(F)c3ncsc23)c(C(F)(F)F)c1C(=O)Nc1ccnc(C(F)(F)F)c1` [Compound I-234], the IC50 is over 10000 nM.

As for `Cn1cc(-c2nn(C)c(C(=O)Nc3ccnc(C(F)(F)F)c3)c2C(F)(F)F)c(C2CC2)n1` [Compound I-103], the IC50 lay in the range of 2500 to 10000 nM.

As to `Cn1nc(-c2cccc3ncsc23)c(C(F)(F)F)c1C(=O)Nc1ccc(C(=O)N2CC(O)C2)c(Cl)c1` [Compound I-235], the IC50 is 500 to 2500 nM.

`O=C(Nc1cnc(-n2nccn2)c(Cl)c1)c1c(C(F)(F)F)c(-c2ccccc2)nn1C1CC1` [Compound I-189, N-(5-chloro-6-(2H-1,2,3-triazol-2-yl)pyridin-3-yl)-1-cyclopropyl-3-phenyl-4-(trifluoromethyl)-1H-pyrazole-5-carboxamide] registered an IC50 of under 500 nM.

As for `Cc1nc2cccc(-c3nn(C)c(C(=O)Nc4ccnc(C5CC5)c4)c3C(F)(F)F)c2s1` [Compound I-298], the IC50 was over 10000 nM.

On to `Cn1nc(-c2cccc3nccn23)c(C(F)(F)F)c1C(=O)Nc1ccc(C(=O)N2CC(O)C2)c(Cl)c1` [Compound I-241, N-(3-Chloro-4-(3-hydroxyazetidine-1-carbonyl)phenyl)-3-(imidazo[1,2-a]pyridin-5-yl)-1-methyl-4-(trifluoromethyl)-1H-pyrazole-5-carboxamide], for which the IC50 lay within 2500 to 10000 nM.

Consider `Cc1csc2c(-c3nn(C)c(C(=O)Nc4ccnc(C(F)(F)F)c4)c3C(F)(F)F)cccc12` [Compound I-101], for which the IC50 fell in the range of 500 to 2500 nM.

Take `Cn1nc(-c2ccc(F)c3c2OCO3)c(C(F)(F)F)c1C(=O)Nc1ccnc(C(F)(F)F)c1` [Compound I-50]: the IC50 was under 500 nM.

For the compound `Cn1nc(-c2nccc3ncsc23)c(C(F)(F)F)c1C(=O)Nc1ccnc(C(F)(F)F)c1` [Compound I-107], the IC50 is over 10000 nM.

Take `Cn1nc(-c2cccc3nnsc23)c(C(F)(F)F)c1C(=O)Nc1ccnc(C(F)(F)F)c1` [Compound I-109]: the IC50 is over 10000 nM.

The compound `Cn1nc(-c2cccc3ncccc23)c(C(F)(F)F)c1C(=O)Nc1cnc(-n2nccn2)c(Cl)c1` [Compound I-58] had an IC50 of under 500 nM.

As for `O=C(Nc1cnc(-n2nccn2)c(Cl)c1)c1cc(-c2ccccc2)n(C(F)F)n1` [Compound I-182], the IC50 is over 10000 nM.

As to `Cn1nc(-c2cccc3c2OCCCO3)c(C(F)(F)F)c1C(=O)Nc1ccnc(C(F)(F)F)c1` [Compound I-25], the IC50 was in the range of 2500 to 10000 nM.
